Measurements: US20240287614A1, “RECIPROCAL MICRORNA-MRNA PAIRINGS AS BIOMARKERS AND THERAPEUTIC TARGETS IN CANCER” (UNIVERSITY OF MARYLAND, EASTERN SHORE, priority 2023, published 2024)

Key:
mTOR and pmTOR = experiment: Western blot of mTOR and pmTOR in cytoplasmic and nuclear fractions of prostate cancer cell lines; format: cell-based, human
Text: (§1) The human cell lines used in the study included: 22Rv1, LNCaP, PC-3, RC77 T/E and MDA PCa 2b (prostate cancer cell lines), MDA MB 231 and MCF-7 (breast cancer cell lines), HT-29 and SW620 (colon cancer cell lines), A549 and H1299 (lung cancer cell lines). RWPE-1, HMEC, FHC, and BEAS-2B were used as normal control cell lines for prostate, breast, colon, and lung, respectively. Note that 22Rv1 is a castration-resistant […] prostate cancer cell line, while LNCaP and PC-3 were derived from lymph node and bone metastasis of […] prostate cancer patients, respectively. RC77 T/E was derived from a primary prostate cancer patient, and MDA PCa 2b was derived from bone metastasis of an prostate cancer patient. The cell lines described were used as in vitro cell models to evaluate the functional roles of miR-99b-5p/MTOR pairing in the […] prostate cancer, African American prostate cancer and solid tumors in general. The cells were grown in specific cell culture media described as follows: 22Rv1, LNCaP, MCF-7 and H1299 were cultured in RPMI-1640 with 10% fetal bovine serum (FBS), PC-3, A549 and FHC were cultured in DMEM with 10% FBS, RC77 T/E was cultured in Keratinocyte SFM with human recombinant epidermal growth factor (EGF) and bovine pituitary extract (BPE), MDA PCa 2b were cultured in BRFF-HPC1 with 20% FBS, HT-29 was cultured in McCory's with 10% FBS, SW620 and MDA MB 231 were cultured in L-15 with 10% FBS, HMEC was cultured in mammary epithelial cell basal medium with supplements, and BEAS-2B was cultured in BEBM base medium with BEBM supplement kit. Cells were maintained at 37° C. in a 5% CO2 incubator.
(§2) The 22Rv1, LNCaP, PC-3, MDA PCa 2b, MCF7, H1299, A549, HT-29, SW620, MDA MB-231, HMEC and BEAS-2B cells were seeded at a density of 3×10^5 cells/well in 6-well plates. RC77 T/E cells were seeded at a density of 5×10^5 cells/well in 6-well plates. The cells were grown for 24 h and then transfected with nonsense/scrambled RNA (NS) and miR-99b-5p mimic (Ambion) using DharmaFECT4 transfection reagent (Dharmacon). After 24 h, fresh media were applied to replace the transfection reagent-containing media, then the cells were incubated for an additional 24 h.
The total proteins were extracted using M-PER extraction reagent with protease and phosphatase inhibitor cocktail (Thermo Fisher Scientific) according to manufacturer's protocol. Cytoplasm and nuclear proteins were extracted using Subcellular Protein Fractionation kit (Thermo Fisher Scientific) according to the manufacturer's protocol. Equal amounts of proteins were used based on the quantification using BCA assay kit (Thermo Fisher Scientific), and the samples were separated by electrophoresis using NuPAGE 4-12% or 8% Bis-Tris gels (Invitrogen). The gels were transferred to PVDF membranes (Bio-Rad) then the PVDF membranes were incubated with SuperBlock blocking buffer (Thermo Fisher Scientific). After 1 h, the PVDF membranes were incubated with primary antibodies overnight at 4° C., washed 3 times with 1×TBST, and then incubated with secondary antibody for 1 h at room temperature, then washed 5 times with 1×TBST. The results were analyzed with SuperSignal ECL substrates (Thermo Fisher Scientific) and a ChemiDoc XRS system (Bio-Rad). The primary and secondary antibodies used in the study were mTOR, pmTOR, AR, GAPDH, Lamin B1, β-actin, and anti-rabbit IgG-HRP antibodies from Cell Signaling Technology.

AR = experiment: Western blot of AR in total, cytoplasmic and nuclear protein fractions; format: cell-based, human
Text: as §1, §2
The total proteins were extracted using M-PER extraction reagent with protease and phosphatase inhibitor cocktail (Thermo Fisher Scientific) according to manufacturer's protocol. […] Equal amounts of proteins were used based on the quantification using BCA assay kit (Thermo Fisher Scientific), and the samples were separated by electrophoresis using NuPAGE 4-12% or 8% Bis-Tris gels (Invitrogen). […] The results were analyzed with SuperSignal ECL substrates (Thermo Fisher Scientific) and a ChemiDoc XRS system (Bio-Rad). […]

[1] = all European American and African American prostate cancer cell lines, 48 h transfection, vs NS
[2] = metastatic prostate cancer cell line MDA PCa 2b

Substance: miR-99b-5p mimic: miRNA mimic of miR-99b-5p (SEQ ID NO: 2, CACCCGUAGAACCGACCUUGCG), purchased from Ambion (listed as RNA, chemistry not given here; listed as Homo sapiens)
- mTOR in nuclear fractions (Western blot) (mTOR and pmTOR; [1]): moderate to significant reduction
- pmTOR in nuclear fractions (Western blot) (mTOR and pmTOR; [1]): moderate to significant reduction
- cytoplasmic mTOR (Western blot) (mTOR and pmTOR; all the prostate cancer cell lines, vs NS): slight to no reduction
- nuclear mTOR (Western blot) (mTOR and pmTOR; [2]): significant decrease
- nuclear pmTOR (Western blot) (mTOR and pmTOR; [2]): significant decrease
- cytoplasmic AR (Western blot) (AR; 22Rv1 and MDA PCa 2b cells): slight to moderate decrease
- AR expression levels, total lysates (Western blot) (AR; MCF-7, 22Rv1, MDA PCa 2b, mimic vs NS): significantly reduced
- nuclear AR protein levels (Western blot) (AR; MCF-7, 22Rv1, and MDA PCa 2b cells): significantly decreased
- cytoplasmic AR (Western blot) (AR; MCF-7 cells): no change
